A word on the EC50: it is the concentration that produces a half-maximal response. The low end stands for an effect from little substance, the high end for a need for much substance.

Consider 38 compounds from patent publication US11802128B2, “Azetidine and pyrrolidine PARP1 inhibitors and uses thereof” (Xinthera, Inc., priority 2021, dated 2023).

Molecules are shown by their SMILES.

Assay [1] relates to MDA-MB-436 (mutated BRCA1) cells. The assay can be described thus: Cell growth inhibition assay (CellTiter-Glo cell viability, 7 days). In kind it is cell-based. As to conditions: Homo sapiens, 168 h, MDA-MB-436, 7 days. From the text: (§1) The objective of this study is to evaluate the effect of invention compounds on cell proliferation through the cell viability assay in DLD-1 BRCA2(−/−) and parental isogenic pair and MDA-MB-436 (mutated BRCA1) cell lines. The CellTiter-Glo (CTG) based cell viability assay is designed to determine the number of viable cells in the culture because of compound effect, by quantifying ATP, which indicates the presence of metabolically active cells.
(§2) DLD-1 BRCA2(−/−) and parental isogenic pair were cultured in RPMI 1640 supplemented with 10% fetal bovine serum (FBS), and MDA-MB-436 cells were cultured in DMEM supplemented with 10% FBS. Both are culture at 37° C. with 5% CO2. Invention compounds were distributed to the 384 well plate (Corning, 3764) using Echo acoustic liquid handler to form a 1:3 serially diluted final concentration with top dose of 10 or 30 μM. The cells were seeded into the plate in the density of 50 cells/well (DLD-1 parental), 200 cells/well (DLD-1 BRCA2−/−), or 500 cells/well (MDA-MB-436). After a short spun, the cells were cultured in a well moisturized incubator at 37° C. with 5% CO2 for 7 days without disturbance. The cell viability was measured by CellTiter Glo 2.0 assay kit (Promega, G9243), and growth inhibition rate was calculated and plotted against final compound concentration, and the data were fitted in Xfit to generate IC50.
A general note: In ATP-based viability assays light output follows the ATP content of the culture.

The subject of the next assay is DLD-1 BRCA2(−/−) cells. Described as above. In kind it is cell-based. As to conditions: Homo sapiens, 168 h.
Text: as §1, §2

Consider `CCc1cc2ncc(CN3CC[C@H](Oc4ccc(C(=O)NC)nc4)C3)cc2[nH]c1=O` [Example 1, 5-{[(3S)-1-[(7-ethyl-6-oxo-5H-1,5-naphthyridin-3-yl)methyl]pyrrolidin-3-yl]oxy}-N-methylpyridine-2-carboxamide], for which the concentration giving a half-maximal response (EC50) (in assay [1]; with DLD-1 BRCA2(−/−) cells) was greater than 1000 nM throughout.
Turning to `CCc1cc2ncc(CN3C[C@@H](F)[C@H](Oc4ccc(C(=O)NC)nc4)C3)cc2[nH]c1=O` [Example 5, 5-{[(3R,4R)-1-[(7-ethyl-6-oxo-5H-1,5-naphthyridin-3-yl)methyl]-4-fluoropyrrolidin-3-yl]oxy}-N-methylpyridine-2-carboxamide], the EC50 (in assay [1]; with DLD-1 BRCA2(−/−) cells) was greater than 1000 nM in each case.
`CCc1cc2ncc(CN3C[C@H](Oc4ccc(C(=O)NC)nc4)[C@@H](F)C3)cc2[nH]c1=O` [Example 6, 5-(((3S,4S)-1-((7-ethyl-6-oxo-5,6-dihydro-1,5-naphthyridin-3-yl)methyl)-4-fluoropyrrolidin-3-yl)oxy)-N-methylpicolinamide]: the EC50 in assay [1] worked out at 42 nM; with DLD-1 BRCA2(−/−) cells it was 73 nM.
Take `CCc1cc2ncc(CN3C[C@H](F)[C@H](Oc4ccc(C(=O)NC)nc4)C3)cc2[nH]c1=O` [Example 8, 5-{[(3R,4S)-1-[(7-ethyl-6-oxo-5H-1,5-naphthyridin-3-yl)methyl]-4-fluoropyrrolidin-3-yl]oxy}-N-methylpyridine-2-carboxamide]: the EC50 with DLD-1 BRCA2(−/−) cells was greater than 1000 nM.
Regarding `CCc1cc2ncc(CN3C[C@@H](F)[C@@H](Oc4ccc(C(=O)NC)nc4)C3)cc2[nH]c1=O` [Example 9, 5-(((3S,4R)-1-((7-ethyl-6-oxo-5,6-dihydro-1,5-naphthyridin-3-yl)methyl)-4-fluoropyrrolidin-3-yl)oxy)-N-methylpicolinamide], the EC50 in assay [1] was 25 nM; with DLD-1 BRCA2(−/−) cells, 72 nM.
On the same counts, the results for `CCc1cc2ncc(CN3CC[C@@H](N(C)c4ccc(C(=O)NC)nc4)C3)cc2[nH]c1=O` [Example 11, 5-{[(3R)-1-[(7-ethyl-6-oxo-5H-1,5-naphthyridin-3-yl)methyl]pyrrolidin-3-yl](methyl)amino}-N-methylpyridine-2-carboxamide] are 19 nM and 28 nM.
For the compound `CCc1cc2ncc(CN3CC[C@@H](Cc4ccc(C(=O)NC)nc4)C3)cc2[nH]c1=O` [Example 13, 5-{[(3R)-1-[(7-ethyl-6-oxo-5H-1,5-naphthyridin-3-yl)methyl]pyrrolidin-3-yl]methyl}-N-methylpyridine-2-carboxamide], the values for the EC50 (in assay [1]; in the assay with DLD-1 BRCA2(−/−) cells) were 12 nM and 38 nM, respectively.
In the assay on DLD-1 BRCA2(−/−) cells, `CCc1cc2ncc(CN3CC(C)(Oc4ccc(C(=O)NC)nc4)C3)cc2[nH]c1=O` [Example 15, 5-({1-[(7-ethyl-6-oxo-5H-1,5-naphthyridin-3-yl)methyl]-3-methylazetidin-3-yl}oxy)-N-methylpyridine-2-carboxamide] gave an EC50 greater than 1000 nM.
As for `CNC(=O)c1ccc(OC2CN(Cc3cnc4cc(C5CC5)c(=O)[nH]c4c3)C2)cn1` [Example 16, 5-({1-[(7-cyclopropyl-6-oxo-5H-1,5-naphthyridin-3-yl)methyl]azetidin-3-yl}oxy)-N-methylpyridine-2-carboxamide], the EC50 in assay [1] is 18 nM; in the assay with DLD-1 BRCA2(−/−) cells, 49 nM.
On the same counts, the results for `CCc1cc2ncc(CN3C[C@@H](Oc4ccc(C(=O)NC)nc4)[C@@H]3C)cc2[nH]c1=O` [Example 18, 5-{[(2S,3R)-1-[(7-ethyl-6-oxo-5H-1,5-naphthyridin-3-yl)methyl]-2-methylazetidin-3-yl]oxy}-N-methylpyridine-2-carboxamide] are greater than 1000 nM and greater than 1000 nM.
On the same counts, the results for `CCc1cc2ncc(CN3C[C@@H](Oc4ccc(C(=O)NC)nc4)[C@H]3C)cc2[nH]c1=O` [Example 19, 5-{[(2R,3R)-1-[(7-ethyl-6-oxo-5H-1,5-naphthyridin-3-yl)methyl]-2-methylazetidin-3-yl]oxy}-N-methylpyridine-2-carboxamide] are greater than 1000 nM and greater than 1000 nM.
On the same counts, the results for `CCc1cc2ncc(CN3C[C@H](Oc4ccc(F)cc4C#N)[C@H]3C)cc2[nH]c1=O` [Example 65] are 91 nM and 93 nM.
Consider `CCNC(=O)c1ccc(O[C@H]2CN(Cc3cnc4cc(CC)c(=O)[nH]c4c3)[C@@H]2C)cn1` [Example 67], for which the EC50 was found to be 0.65 nM in assay [1] and 0.97 nM in the assay with DLD-1 BRCA2(−/−) cells.
For `CCc1cc2ncc(CN3C[C@H](Oc4ccc(C#N)c(F)c4)[C@H]3C)cc2[nH]c1=O` [Example 68], the EC50 in assay [1] worked out at 18 nM; with DLD-1 BRCA2(−/−) cells, 15 nM.
On the same counts, the results for `CCc1cc2ncc(CN3C[C@H](Oc4ccc(C#N)cc4F)[C@H]3C)cc2[nH]c1=O` [Example 69] are 5.6 nM and 11 nM.
For `[2H]C([2H])(c1cnc2cc(CC)c(=O)[nH]c2c1)N1C[C@H](Oc2ccc(C(=O)NC3CC3)nc2)[C@H]1C` [Example 71], the values for the EC50 (in assay [1]; in the assay on DLD-1 BRCA2(−/−) cells) were 0.49 nM and 0.89 nM, respectively.
On to `CCc1cc2ncc(CN3C[C@H](Oc4ccc(C#N)cc4C#N)[C@H]3C)cc2[nH]c1=O` [Example 72], for which the EC50 was 50 nM in assay [1] and 33 nM in the assay with DLD-1 BRCA2(−/−) cells.
On the same counts, the results for `C[C@@H]1[C@@H](Oc2ccc(C#N)nc2)CN1Cc1cnc2cc(Cl)c(=O)[nH]c2c1` [Example 78] are 35 nM and 32 nM.
On the same counts, the results for `CCc1cc2ncc(CN3C[C@H](Oc4ccc(C(=O)NC5CC5)nc4C#N)[C@H]3C)cc2[nH]c1=O` [Example 79] are 1.9 nM and 6.3 nM.
On the same counts, the results for `Cc1cc2ncc(CN3C[C@H](Oc4ccc(C(=O)N[C@H]5C[C@@H](F)C5)nc4)[C@H]3C)cc2[nH]c1=O` [Example 81] are 1.7 nM and 3 nM.
Take `CCc1cc2ncc(CN3C[C@H](n4ccc5nc(C#N)ccc54)[C@H]3C)cc2[nH]c1=O` [Example 83]: the values for the EC50 (in assay [1]; in the assay on DLD-1 BRCA2(−/−) cells) were 11 nM and 22 nM, respectively.
For the compound `Cc1cc2ncc(CN3C[C@H](Oc4ccc(C(=O)NC5CCC5)nc4)[C@H]3C)cc2[nH]c1=O` [Example 85], the EC50 in assay [1] is 1.3 nM; with DLD-1 BRCA2(−/−) cells it was 1.8 nM.
On the same counts, the results for `CCc1cc2ncc(CN3C[C@H](n4ccc5nc(C(=O)NC6CC6)ccc54)[C@H]3C)cc2[nH]c1=O` [Example 86] are 1.8 nM and 3.4 nM.
On the same counts, the results for `CNC(=O)c1ccc2c(ccn2[C@H]2CN(Cc3ccc4[nH]c(=O)c(C5CC5)cc4n3)[C@@H]2C)n1` [Example 87] are 12 nM and 20 nM.
On to `CCNC(=O)c1ccc2c(ccn2[C@H]2CN(Cc3cnc4cc(CC)c(=O)[nH]c4c3)[C@@H]2C)n1` [Example 88], for which the EC50 in assay [1] was found to be 3.4 nM; in the assay with DLD-1 BRCA2(−/−) cells, 6.3 nM.
On the same counts, the results for `C[C@@H]1[C@@H](Oc2ccc(C(=O)NC3CCC3)nc2)CN1Cc1cnc2cc(C(F)F)c(=O)[nH]c2c1` [Example 92] are 1.1 nM and 1.6 nM.
On the same counts, the results for `CCc1nc2ccc(CN3C[C@H](Oc4ccc(C(=O)NC)nc4)[C@H]3C)c(F)c2[nH]c1=O` [Example 93] are 5 nM and 7.2 nM.
For `Cc1nc2ccc(CN3C[C@H](Oc4ccc(C(=O)NC5CC5)nc4)[C@H]3C)c(F)c2[nH]c1=O` [Example 94], the EC50 in assay [1] amounted to 11 nM; in the assay with DLD-1 BRCA2(−/−) cells it was 43 nM.
As for `CCc1nc2ccc(CN3C[C@H](Oc4ccc(C(=O)NC5CC5)nc4)[C@H]3C)c(F)c2[nH]c1=O` [Example 95], the EC50 in assay [1] came out at 3.2 nM; in the assay on DLD-1 BRCA2(−/−) cells, 3.5 nM.
As for `CNC(=O)c1ccc2c(ccn2[C@H]2CN(Cc3ccc4nc(C)c(=O)[nH]c4c3F)[C@@H]2C)n1` [Example 96], the EC50 (in assay [1]; in the assay on DLD-1 BRCA2(−/−) cells) was greater than 1000 nM each time.
Turning to `CNC(=O)c1ccc(O[C@H]2CN(Cc3ccc4nc(C5CC5)c(=O)[nH]c4c3F)[C@@H]2C)cn1` [Example 97], the EC50 in assay [1] is 21 nM; in the assay on DLD-1 BRCA2(−/−) cells, 34 nM.
On the same counts, the results for `CNC(=O)c1ccc(O[C@H]2CN(Cc3ccc4nc(C)c(=O)[nH]c4c3F)[C@@H]2C)c(F)n1` [Example 98] are 29 nM and 61 nM.
`C[C@@H]1[C@@H](Oc2ccc(C(=O)NC3CC3)nc2)CN1Cc1ccc2cc(Cl)c(=O)[nH]c2c1F` [Example 99]: the EC50 in assay [1] was 1.7 nM; in the assay with DLD-1 BRCA2(−/−) cells, 4 nM.
On the same counts, the results for `CCc1nc2ccc(CN3C[C@H](Oc4ccc(C(=O)NC)nc4F)[C@H]3C)c(F)c2[nH]c1=O` [Example 100] are 5.9 nM and 11 nM.
As for `CCc1nc2ccc(CN3C[C@H](Oc4ccc(C(=O)NC5CC5)nc4F)[C@H]3C)c(F)c2[nH]c1=O` [Example 101], the EC50 turned out to be 3.1 nM in assay [1] and 5.4 nM in the assay on DLD-1 BRCA2(−/−) cells.
On the same counts, the results for `CNC(=O)c1ccc(O[C@H]2CN(Cc3cc(F)c4nc(C)c(=O)[nH]c4c3F)[C@@H]2C)cn1` [Example 102] are 110 nM and 49 nM.
Take `Cc1nc2ccc(CN3C[C@H](Oc4ccc(C(=O)NC5CC5)nc4F)[C@H]3C)c(F)c2[nH]c1=O` [Example 103]: the EC50 stood at 30 nM in assay [1] and 27 nM in the assay on DLD-1 BRCA2(−/−) cells.
On the same counts, the results for `CCc1cc2ncc(CN3C[C@H](Oc4ccc(C(=O)NC5CC5)nc4F)[C@H]3C)cc2[nH]c1=O` [Example 104] are 0.85 nM and 1.9 nM.
